# Results as given in patent publication US20190031618A1, “BENZIMIDAZOLE DERIVATIVES USEFUL AS CB-1 INVERSE AGONISTS” (Janssen Pharmaceutica NV, priority 2015, published 2019).
# Legend:
# [1] = target: Human CB2R (Cannabinoid receptor 2) (Homo sapiens, UniProt P34972); experiment: CB-2 in vitro cAMP (HTRF) assay; format: cell-based; conditions: HEK cells, cAMP HTRF, 250 nM forskolin; mean where tested more than once; read-out: CB2 HEK_cAMP EC50
# Summary of the method: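 HEK-293 cells stably expressing receptor, plated overnight at 4E5 cells/mL, tested with 1/3 serial dilutions of compound in HBSS/HEPES/BSA buffer with 0.5 mM IBMX and forskolin (diluted to 1.5 μM in buffer). cAMP measured by competitive HTRF immunoassay (d2-cAMP, cryptate anti-cAMP), signal inversely proportional to cAMP.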
# [2] = target: Human CB1R (Cannabinoid receptor 1) (Homo sapiens, UniProt P21554); experiment: CB-1 in vitro cAMP (HTRF) assay; format: cell-based; conditions: HEK cells, cAMP HTRF, 250 nM forskolin; mean where tested more than once; read-out: CB1 HEK_cAMP EC50
# Summary of the method: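 Intracellular cAMP from HTRF ratio (d2-cAMP vs Eu-cryptate anti-cAMP), converted to nM via per-plate standards, in stable human CB1R HEK-293 cells.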
# Human CB2R (Cannabinoid receptor 2), sequence (P34972 whole entry): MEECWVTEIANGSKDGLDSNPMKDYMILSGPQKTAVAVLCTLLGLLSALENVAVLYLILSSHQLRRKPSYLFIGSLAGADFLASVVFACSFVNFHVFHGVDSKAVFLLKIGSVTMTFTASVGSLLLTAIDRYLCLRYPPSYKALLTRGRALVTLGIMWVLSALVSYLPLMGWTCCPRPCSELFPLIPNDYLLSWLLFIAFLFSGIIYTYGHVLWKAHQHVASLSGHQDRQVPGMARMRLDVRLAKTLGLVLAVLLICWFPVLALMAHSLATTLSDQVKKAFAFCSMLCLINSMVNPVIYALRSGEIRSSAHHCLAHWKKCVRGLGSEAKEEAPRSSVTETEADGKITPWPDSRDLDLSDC
# Human CB1R (Cannabinoid receptor 1), sequence (P21554 whole entry): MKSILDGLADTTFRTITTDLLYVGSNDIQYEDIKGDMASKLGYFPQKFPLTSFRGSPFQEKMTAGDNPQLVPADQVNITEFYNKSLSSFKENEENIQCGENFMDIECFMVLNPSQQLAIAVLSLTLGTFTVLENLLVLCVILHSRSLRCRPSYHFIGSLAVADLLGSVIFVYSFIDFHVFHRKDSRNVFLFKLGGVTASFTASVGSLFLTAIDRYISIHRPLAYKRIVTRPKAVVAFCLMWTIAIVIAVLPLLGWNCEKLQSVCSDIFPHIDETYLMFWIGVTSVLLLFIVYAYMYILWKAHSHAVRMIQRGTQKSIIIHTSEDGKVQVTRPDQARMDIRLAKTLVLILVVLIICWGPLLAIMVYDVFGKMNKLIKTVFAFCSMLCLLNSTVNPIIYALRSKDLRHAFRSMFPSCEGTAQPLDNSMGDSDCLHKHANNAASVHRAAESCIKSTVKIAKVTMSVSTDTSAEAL
Compound,EC50 [1],EC50 [2]
CCOC(=O)N1CCC(n2c(-c3nccs3)nc3ccc(C(c4ccc(Cl)cc4)c4nccs4)cc32)CC1 (stereo not drawn) [Example 419],> 10000 nM,1180 nM
O=S(=O)(N1CCC(n2cnc3ccc(C(c4ccc(Cl)cc4)c4nccs4)cc32)CC1)C(F)(F)F (stereo not drawn) [Example 398],> 10000 nM,21 nM
CC(c1cccc(C(=O)O)c1)N1CCC(n2c(C3CC3)nc3ccc(C(c4ccc(Cl)cc4)c4ccc(Cl)cc4)cc32)CC1 (stereo not drawn) [Example 87],9000 nM,9 nM
CCOC(=O)N1CCC(n2c(-c3ccc(Cl)cc3)nc3ccc(C(c4ccc(Cl)cc4)c4nccs4)cc32)CC1 (stereo not drawn) [Example 441],> 10000 nM,2090 nM
Clc1ccc(C(c2ccc3nc(C4CC4)n(C4CCc5ccccc5C4)c3c2)c2nccs2)cc1 (stereo not drawn) [Example 342],> 10000 nM,184 nM
CCc1nc2ccc(C(c3ccc(Cl)cc3)c3nccs3)cc2n1-c1cccc(Cl)c1 (stereo not drawn) [Example 434],> 10000 nM,22.7 nM
OC(c1ccc(Cl)cc1)(c1ccc2nc(C3CC3)n(C3CCc4ccccc4C3)c2c1)c1nccs1 (stereo not drawn) [Example 341],> 10000 nM,1330 nM
O=C(O)c1cc(CN2CCC(n3c(C4CC4)nc4ccc(C(c5ccc(Cl)cc5)c5ccc(Cl)cc5)cc43)CC2)ccc1F [Example 95],> 10000 nM,11.2 nM
FC(F)(F)Cc1nc2ccc(C(c3ccc(Cl)cc3)c3nccs3)cc2n1CCc1cccc(Cl)c1 (stereo not drawn) [Example 340],> 10000 nM,1440 nM
CCc1nc2ccc(C(c3ccc(Cl)cc3)c3nccs3)cc2n1CCc1cccc(Cl)c1 (stereo not drawn) [Example 409],> 10000 nM,47.8 nM
CCc1csc(C(c2ccc(Cl)cc2)c2ccc3nc(C)n(Cc4ccc(Cl)cc4)c3c2)n1 (stereo not drawn) [Example 452],> 6700 nM,813 nM
O=C(O)c1ccc(CN2CCC(n3c(C4CC4)nc4ccc(C(c5ccc(Cl)cc5)c5ccc(Cl)cc5)cc43)CC2)s1 [Example 128],4890 nM,6.9 nM
NC(=O)c1ccc(CN2CCC(n3c(C4CC4)nc4ccc(C(c5ccc(Cl)cc5)c5ccc(Cl)cc5)cc43)CC2)nc1 [Example 122],9100 nM,4.9 nM
Cc1nc2ccc(C(c3ccc(Cl)cc3)c3nc(C(F)(F)F)cs3)cc2n1Cc1ccc(Cl)cc1 (stereo not drawn) [Example 455],> 7400 nM,2410 nM
O=C(c1nc[nH]n1)N1CCC(n2c(C3CC3)nc3ccc(C(c4ccccc4)c4ccccc4)cc32)CC1 [Example 200],6310 nM,4720 nM
COc1cc(C(c2ccc(Cl)cc2)c2ccc(Cl)cc2)cc2c1nc(C1CC1)n2C1CCN(S(=O)(=O)C(F)(F)F)CC1 [Example 287],4590 nM,2.4 nM
CCc1csc(C(c2ccc(Cl)cc2)c2ccc3ncn(Cc4ccc(Cl)cc4)c3c2)n1 (stereo not drawn) [Example 460],> 10000 nM,> 10000 nM
O=S(=O)(N1CCC(n2c(C3CC3)nc3c(O)cc(C(c4ccc(Cl)cc4)c4ccc(Cl)cc4)cc32)CC1)C(F)(F)F [Example 202],> 10000 nM,31.2 nM
O=C(O)c1ccnc(CN2CCC(n3c(C4CC4)nc4ccc(C(c5ccc(Cl)cc5)c5ccc(Cl)cc5)cc43)CC2)c1 [Example 88],> 10000 nM,33 nM
CCOC(=O)N1CCC(n2c(C3CC3)nc3ccc(C(c4ccc(Cl)cc4)c4nccs4)cc32)CC1 (stereo not drawn) [Example 421],> 10000 nM,112 nM
O=S(=O)(N1CCC(n2c(C3CCC3)nc3ccc(C(O)(c4ccc(Cl)cc4)c4ccc(Cl)cc4)cc32)CC1)C(F)(F)F [Example 319],> 10000 nM,22.5 nM
Clc1ccc(-c2nc3ccc(C(c4ccc(Cl)cc4)c4nccs4)cc3n2C2CCCCC2)cc1 (stereo not drawn) [Example 442],> 10000 nM,3400 nM
CCOC(=O)c1nc2ccc(C(c3ccc(Cl)cc3)c3nccs3)cc2n1-c1cccc(Cl)c1 (stereo not drawn) [Example 429],> 10000 nM,437 nM
O=C(O)c1cccc(CN2CCC(n3c(C4CC4)nc4ccc(C(c5ccc(Cl)cc5)c5ccc(Cl)cc5)cc43)CC2)c1Cl [Example 91],9400 nM,32.4 nM
CC(C)(C)c1nc2ccc(C(O)(c3ccc(Cl)cc3)c3ccc(Cl)cc3)cc2n1C1CCN(S(=O)(=O)C(F)(F)F)CC1 [Example 292],> 10000 nM,2890 nM
O=C(O)c1cccc(CN2CCC(n3c(C4CC4)nc4ccc(C(c5ccc(Cl)cc5)c5ccc(Cl)cc5)cc43)CC2)c1O [Example 79],5090 nM,32.6 nM

# Further lines, results first:
EC50 [1],EC50 [2],Compound
4660 nM,6.4 nM,Cc1cc(S(=O)(=O)N2CCC(n3c(C4CC4)nc4ccc(C(c5ccc(Cl)cc5)c5ccc(Cl)cc5)cc43)CC2)ccc1C(=O)O [Example 207]
> 10000 nM,9000 nM,O=C(O)[C@H]1CC[C@@H](n2c(C3CC3)nc3ccc(C(c4ccc(Cl)cc4)c4ccc(Cl)cc4)cc32)CC1 [Example 137]
> 10000 nM,6020 nM,CC(c1ccc(Cl)cc1)n1c(C2CC2)nc2ccc(C(c3ccc(Cl)cc3)c3nccs3)cc21 (stereo not drawn) [Example 401]
2790 nM,20.1 nM,CCc1nc2ccc(C(c3ccc(Cl)cc3)c3ccc(Cl)cc3)cc2n1CCc1ccc(C(F)(F)F)cc1 [Example 314]
1440 nM,7.2 nM,Cc1cc(C(=O)O)sc1S(=O)(=O)N1CCC(n2c(C3CC3)nc3ccc(C(c4ccc(Cl)cc4)c4ccc(Cl)cc4)cc32)CC1 [Example 218]
6800 nM,37.5 nM,COC(=O)c1ccc(OCCn2c(C3CC3)nc3ccc(C(c4ccc(Cl)cc4)c4ccc(Cl)cc4)cc32)nc1 [Example 34]
6740 nM,94.9 nM,Clc1ccc(C(c2ccc(Cl)cc2)c2ccc3nc(C4CC4)n(C4CCOCC4)c3c2)cc1 [Example 119]
> 10000 nM,> 10000 nM,O=C(O)c1ccc(Cn2c(C3CC3)nc3ccc(C(c4ccc(Cl)cc4)c4ccc(Cl)cc4)cc32)cc1 [Example 132]
> 10000 nM,> 10000 nM,O=C(O)COc1ccc(Cn2c(C3CC3)nc3ccc(C(c4ccc(Cl)cc4)c4ccc(Cl)cc4)cc32)cc1 [Example 176]
1750 nM,322 nM,O=C(O)c1cccc(CN2CCC(Cn3c(C4CC4)nc4ccc(C(c5ccc(Cl)cc5)c5ccc(Cl)cc5)cc43)CC2)c1 [Example 10]
632 nM,33 nM,COC(=O)c1cnc(N2CCC(Cn3c(C4CC4)nc4ccc(C(c5ccc(Cl)cc5)c5ccc(Cl)cc5)cc43)CC2)nc1 [Example 5]
7780 nM,91.6 nM,O=C(O)c1cccc(N2CCC(n3c(C4CC4)nc4ccc(C(c5ccc(Cl)cc5)c5ccc(Cl)cc5)cc43)CC2)c1 [Example 163]
2350 nM,2.6 nM,COC(=O)CN1CCC(n2c(C3CC3)nc3ccc(C(c4ccc(Cl)cc4)c4ccc(Cl)cc4)cc32)CC1 [Example 64]
> 10000 nM,615 nM,CCc1nc2ccc(C(c3ccc(Cl)cc3)c3ccc(Cl)cc3)cc2n1C1Cc2ccccc2C1 [Example 297]
2110 nM,8 nM,NC(=O)c1ccc(N2CCC(n3c(C4CC4)nc4ccc(C(c5ccc(Cl)cc5)c5ccc(Cl)cc5)cc43)CC2)cc1 [Example 161]
1500 nM,49.2 nM,"CCc1nc2ccc(C(c3ccc(Cl)cc3)c3ccc(Cl)cc3)cc2n1CC(C)c1ccccc1 (single isomer, unassigned) [Example 312]"
960 nM,3.6 nM,O=S(=O)(c1ccccc1)N1CCC(n2c(C3CC3)nc3ccc(C(c4ccc(Cl)cc4)c4ccc(Cl)cc4)cc32)CC1 [Example 283]
1750 nM,63.9 nM,O=C(O)c1cc(CN2CCC(n3c(C4CC4)nc4ccc(C(c5ccc(Cl)cc5)c5ccc(Cl)cc5)cc43)CC2)cc(C(F)(F)F)c1 [Example 93]
11400 nM,86.6 nM,O=C(O)c1ccc(C(F)(F)F)c(CN2CCC(n3c(C4CC4)nc4ccc(C(c5ccc(Cl)cc5)c5ccc(Cl)cc5)cc43)CC2)c1 [Example 80]
1030 nM,578 nM,CC(C(O)c1ccccc1)n1c(C2CC2)nc2ccc(C(c3ccc(Cl)cc3)c3ccc(Cl)cc3)cc21 (stereo not drawn) [Example 299]
> 10000 nM,1650 nM,O=C(O)c1ccc(-c2ccc(CCn3c(C4CC4)nc4ccc(C(c5ccc(Cl)cc5)c5ccc(Cl)cc5)cc43)cc2)cc1 [Example 25]
990 nM,63.8 nM,O=C(c1nc[nH]n1)N1CCC(n2c(C3CC3)nc3ccc(C(c4ccc(Cl)cc4)c4ccc(Cl)cc4)cc32)CC1 [Example 201]
> 10000 nM,1.9 nM,NC(=O)c1ccc(S(=O)(=O)N2CCC(n3c(C4CC4)nc4ccc(C(c5ccc(Cl)cc5)c5ccc(Cl)cc5)cc43)CC2)cn1 [Example 238]
4700 nM,15.2 nM,CCOC(=O)COc1cccc(Cn2c(C3CC3)nc3ccc(C(c4ccc(Cl)cc4)c4ccc(Cl)cc4)cc32)c1 [Example 144]
> 10000 nM,10.8 nM,O=S(=O)(c1ccccc1C(F)(F)F)N1CCC(n2c(C3CC3)nc3ccc(C(c4ccc(Cl)cc4)c4ccc(Cl)cc4)cc32)CC1 [Example 272]
4970 nM,49.4 nM,O=C(O)c1cccc(-c2cccc(CCn3c(C4CC4)nc4ccc(C(c5ccc(Cl)cc5)c5ccc(Cl)cc5)cc43)c2)c1 [Example 11]
5020 nM,3.7 nM,O=C(O)c1ccc(S(=O)(=O)N2CCC(n3c(C4CC4)nc4ccc(C(c5ccc(Cl)cc5)c5ccc(Cl)cc5)cc43)CC2)cc1C(F)(F)F [Example 166]
4540 nM,253 nM,O=C(O)c1ccc(S(=O)(=O)N[C@H]2CC[C@H](n3c(C4CC4)nc4ccc(C(c5ccc(Cl)cc5)c5ccc(Cl)cc5)cc43)CC2)cc1 [Example 21]
